Non-standard residues stand in square brackets, D forms with d. Residues, ends and D or L forms follow the SMILES beside them. pT = C[C@@H](OP(=O)(O)O)[C@H](N)C(=O)O; pS = N[C@@H](COP(=O)(O)O)C(=O)O
Assays:
Type in all cases: binding
MAP1LC3B = biological target: T1, MAP1LC3B (Homo sapiens, UniProt Q9GZQ8); assay: FP displacement assay, MAP1LC3B; conditions: read-out: KD values ± SEM
T1 construct: GST (cleaved yes); made in house; host or cells: Escherichia coli BL21-Gold(DE3)
Description: (§1) FP experiments were performed as described previously (Kliche et al, [2021]). Shortly, in order to monitor the binding event, FITC‐labelled peptides were used (excitation 495 nm, emission: 535 nm) and the FP signal was recorded in mP on a SpectraMax iD5 Multi‐Mode Microplate Reader (Molecular Devices) by measuring the emitted light in two angels. The measurements were performed at room temperature and prepared in nonbinding black half area 96‐well microplates (Corning®; 50 μl/well). For measuring direct binding, that is saturation curves, a 1:1 dilution series of protein domain (25 μl/well) was generated in 50 mM sodium phosphate buffer pH 7.4 and the measurement performed with 5 nM FITC‐labelled peptide (25 μl/well). The buffer‐corrected values were subsequently plotted with PRISM and fitted to the quadratic equation (Gianni et al, [2005]).
(§2) The 1:1 dilution series in this experiment was performed with the unlabelled peptide in 50 mM sodium phosphate buffer pH 7.4, so that each well‐contained unlabelled peptide (25 μl) at a certain concentration and pre‐formed complex (25 μl). The KD values of this indirectly monitored binding event were calculated as described previously (Nikolovska‐Coleska et al, [2004]). All measurements were at least in technical triplicates as well as biological duplicates when indicated. An amplitude shift between repeat measurements in the displacement experiments was occasionally observed due to variations in the protein preparations. If that was the case, the “active” protein concentration was back‐calculated according to the quadratic equation from the saturation curves performed in parallel. By comparing the active protein concentrations in the complex between different protein preparations, the amplitude was normalised.

KPNA4 ARM Major = biological target: T2, KPNA4 ARM Major (Homo sapiens, UniProt O00629); assay: FP displacement assay, KPNA4 ARM major pocket; conditions: for IC50: Fig 3E, KPNA4 ARM major, technical triplicates, read-out: IC50 values of displacement curves, with SEM; for Kd: major pocket probe FITC-MYC 5 nM, 50 mM sodium phosphate pH 7.4, room temperature, at least three technical replicates, read-out: KD values ± SEM
T2 construct: 60-487; GST (cleaved yes); made in house; host or cells: Escherichia coli BL21-Gold(DE3)
Description: as §1, §2

KPNA4 ARM minor = biological target: T3, KPNA4 ARM minor (Homo sapiens, UniProt O00629); assay: FP displacement assay, KPNA4 ARM minor pocket; conditions: for IC50: Fig 3E, KPNA4 ARM minor, technical triplicates, read-out: IC50 values of displacement curves, with SEM; for Kd: minor pocket probe FITC-NCOR2 5 nM, 50 mM sodium phosphate pH 7.4, room temperature, at least three technical replicates, read-out: KD values ± SEM
T3 construct: 60-487; GST (cleaved yes); made in house; host or cells: Escherichia coli BL21-Gold(DE3)
Description: as §1, §2

T3 sequence (O00629 60-487): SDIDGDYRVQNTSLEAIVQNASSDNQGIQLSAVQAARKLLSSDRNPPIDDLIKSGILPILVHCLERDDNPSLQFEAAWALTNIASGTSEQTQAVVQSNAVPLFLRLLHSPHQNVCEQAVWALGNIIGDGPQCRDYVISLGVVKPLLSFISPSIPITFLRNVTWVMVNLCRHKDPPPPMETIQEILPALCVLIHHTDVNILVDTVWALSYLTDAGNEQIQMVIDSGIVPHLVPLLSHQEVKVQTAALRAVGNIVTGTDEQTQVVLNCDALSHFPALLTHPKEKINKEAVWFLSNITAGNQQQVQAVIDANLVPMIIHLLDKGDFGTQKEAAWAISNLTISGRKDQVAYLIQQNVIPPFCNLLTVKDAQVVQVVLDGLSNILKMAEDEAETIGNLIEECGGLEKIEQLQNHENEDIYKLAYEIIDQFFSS
T2 sequence (O00629 60-487): as above

Compound | Kd (MAP1LC3B) | IC50 (KPNA4 ARM Major) | Kd (KPNA4 ARM Major) | IC50 (KPNA4 ARM minor) | Kd (KPNA4 ARM minor)
CC(=O)N[C@@H](CCC(N)=O)C(=O)N[C@@H](CC(N)=O)C(=O)N[C@@H](CC(C)C)C(=O)N[C@@H](CO)C(=O)N[C@@H](CCCNC(=N)N)C(=O)N[C@@H](COP(=O)(O)O)C(=O)N[C@@H](Cc1c[nH]c2ccccc12)C(=O)N[C@@H](Cc1c[nH]cn1)C(=O)N[C@@H](CC(=O)O)C(=O)N[C@H](C(=O)N[C@@H](CCC(N)=O)C(=O)N[C@H](C(=O)N[C@@H](CO)C(=O)N[C@@H](CO)C(=O)N[C@@H](C)C(=O)N[C@@H](Cc1ccc(O)cc1)C(N)=O)C(C)C)C(C)C [TPD52L2_91–106 pS] | 61 ± 2 µM | – | – | – | –
CC(=O)N[C@@H](CC(N)=O)C(=O)N[C@@H](Cc1ccc(O)cc1)C(=O)N[C@@H](C)C(=O)N1CCC[C@H]1C(=O)N1CCC[C@H]1C(=O)N[C@H](C(=O)N[C@@H](CCCCN)C(=O)N[C@@H](CCCNC(=N)N)C(=O)N[C@@H](CCC(=O)O)C(=O)N[C@@H](CCCNC(=N)N)C(=O)N[C@H](C(=O)N[C@@H](CO)C(=O)N[C@@H](CO)C(=O)N[C@@H](CC(C)C)C(=O)N[C@H](C(=O)N[C@@H](CCC(N)=O)C(N)=O)[C@@H](C)O)[C@@H](C)O)C(C)C [RANBP3_114–129 wt] (Ac-NYAPPVKRERTSSLTQ-NH2) | – | 1.3 ± 0.2 µM | 0.15 ± 0.01 µM | 325 ± 34 µM | 68 ± 4 µM
CC(=O)N[C@@H](CC(=O)O)C(=O)N[C@H](C(=O)N[C@@H](CCC(=O)O)C(=O)N[C@@H](Cc1c[nH]cn1)C(=O)NCC(=O)NCC(=O)N[C@@H](CCCCN)C(=O)N[C@@H](CCCNC(=N)N)C(=O)N[C@@H](CO)C(=O)N[C@@H](CCCNC(=N)N)C(=O)N[C@@H](CC(C)C)C(=O)N[C@H](C(=O)N1CCC[C@H]1C(=O)N[C@H](C(=O)N[C@@H](CO)C(=O)N[C@@H](Cc1ccc(O)cc1)C(N)=O)C(C)C)[C@@H](C)O)C(C)C [SQSTM1_258–272 wt] (Ac-DVEHGGKRSRLTPVSY-NH2) | – | – | 0.24 ± 0.04 µM | – | 14 ± 0.7 µM
CC(=O)NCC(=O)N[C@@H](C)C(=O)N[C@@H](COP(=O)(O)O)C(=O)N1CCC[C@H]1C(=O)N[C@@H](C)C(=O)N[C@@H](CC(C)C)C(=O)N[C@@H](CCCCN)C(=O)N[C@@H](CCCNC(=N)N)C(=O)N[C@@H](CO)C(=O)N[C@@H](Cc1c[nH]cn1)C(=O)N[C@@H](CO)C(=O)N[C@@H](CC(=O)O)C(=O)N[C@@H](CO)C(=O)N[C@@H](Cc1ccc(O)cc1)C(N)=O [CDC25A114–125 pS] (Ac-GA[pS]PALKRSHSDSY-NH2) | – | – | 0.63 ± 0.04 µM | – | 2.8 ± 0.4 µM
CC(=O)N[C@@H](CC(=O)O)C(=O)N[C@H](C(=O)N[C@@H](CCC(=O)O)C(=O)N[C@@H](Cc1c[nH]cn1)C(=O)NCC(=O)NCC(=O)N[C@@H](CCCCN)C(=O)N[C@@H](CCCNC(=N)N)C(=O)N[C@@H](COP(=O)(O)O)C(=O)N[C@@H](CCCNC(=N)N)C(=O)N[C@@H](CC(C)C)C(=O)N[C@H](C(=O)N1CCC[C@H]1C(=O)N[C@H](C(=O)N[C@@H](CO)C(=O)N[C@@H](Cc1ccc(O)cc1)C(N)=O)C(C)C)[C@@H](C)O)C(C)C [SQSTM1_258–272 pS] (Ac-DVEHGGKR[pS]RLTPVSY-NH2) | – | – | 50 ± 7 µM | – | 248 ± 3 µM
CC(=O)N[C@@H](CC(N)=O)C(=O)N[C@@H](Cc1ccc(O)cc1)C(=O)N[C@@H](C)C(=O)N1CCC[C@H]1C(=O)N1CCC[C@H]1C(=O)N[C@H](C(=O)N[C@@H](CCCCN)C(=O)N[C@@H](CCCNC(=N)N)C(=O)N[C@@H](CCC(=O)O)C(=O)N[C@@H](CCCNC(=N)N)C(=O)N[C@H](C(=O)N[C@@H](CO)C(=O)N[C@@H](CO)C(=O)N[C@@H](CC(C)C)C(=O)N[C@H](C(=O)N[C@@H](CCC(N)=O)C(N)=O)[C@@H](C)O)[C@@H](C)OP(=O)(O)O)C(C)C [RANBP3_114–129 pS (p + 5)] (Ac-NYAPPVKRER[pT]SSLTQ-NH2) | – | 10 ± 1 µM | 1.13 ± 0.05 µM | 800 ± 75 µM | 167 ± 9 µM

From publication PMC10333884, “Large‐scale phosphomimetic screening identifies phospho‐modulated motif‐based protein interactions” (Molecular Systems Biology, 2023)
